Data as given in patent US20080031868A1, “HUMAN LYSOZYME MEDICINE, ITS MANUFACTURING METHOD AND APPLICATION THEREOF” (priority 2005, published 2008).
Marks after values point to notes of the source that are not given here.

Columns and labels:
[1] = test system: Staphylococcus aureus MRSABAA-42; test: Bronchus pneumonia mice infected by Staphylococcus aureus MRSA BAA-42, treated by atomization inspiring; format: in vivo; conditions: for accumulative survival number: 30 mice; for survival elevation rate (%): versus infected model group; for bacterial number: mice lung
[2] = test system: Staphylococcus aureus MRSABAA-42; test: as above; format: in vivo; conditions: for survival rate (%): 14 days; for bacterial number: mice lung
From the text: A, atomization sucks gene recombinant Human Lysozyme (HLZ) cured bronchus pneumonia mice infected by Staphylococcus aureus MRSABAA-42
Choose the test lawn, after washing with the physiological saline, correcting by McB tubes for comparative tests bacterium solution concentration 2#MCF, turbidity of 2.7×10^11 CFU/ml, diluted with physiological saline separately into 10^−1, 10^−2, 10^−3 bacterium solution, drip the nose to infect for mice respectively (anaesthetize the mice with the pentobarbital first, 30 mg/kg, ip.), 0.05 ml a mouse. Observed the mice body changing, and killed parts of mice after infecting 48 h, fetch the whole lung to tissue homogenate, 10 times diluted by physiological saline, draw 0.1 m1 to MH agar plate surface, to cultivate last night 35° C., Gram staining, test under microscope, and count plate. At the same time recorded the number of death mice, and collect some mice tracheas, bronchus, lung tissue and do pathology tissue observing.
It is called medial lethal dose (LD50) that bacterium amount caused mice appearing lung pharmacology change and 50% died. LD50was used as experimental treatment amount.
Infected mice is divided into 10 groups at random according to the weight, 30 every groups.
Designed dosage: The concentration of recombinant human lysozyme medicine was 15000 u/ml as in clinical atomization therapy. Its dose was 15000 u per time and administrated one time everyday, I.e 0.5 mg per time everyday. The dose was 1.3×10-3 mg a mice (counted by weight of 20 g). […] To ensure the breathing amount of lysozyme, the breathing time were extended for 0.5 hour. Based on 0.5 mg/ml, the concentration of 0.25 mg/ml, 1.0 mg/ml and 2.0 mg/ml were set respectively as treatment dose.
The same group mice were put into the ultrasonic atomizer and then treated with human lysozyme atomized in the compression sprayer (PARL.BOY), twice a day, 5 days in succession.
Every group, from the infected day to calculae, the animal incidence and death were recorded 14 days in succession. Every group collected 2-3 mice and killed them the 14th day after infecting, did bacteriology detection after lung homogenate, killed surplus animal to fetch the trachea, bronchus, fixed in 10% of the formaldehyde solution after weighing, did pathology check.
The bacterial culture: A part of mice were killed after infecting 24 h, fetched the whole lung weighting, added 2 ml degerming PBS solution 10 times diluted, draw 0.1 mL to MH agar plate surface, to cultivate last night 35° C., counted in the cultivation plateform of 30-300 CF, if the two close level tissue fluid is 30-300 CFU, counted the low density (make 3 plateforms at the same time each tissue fluid, calculate the average). Collected 2 mice to do bacterial culture in every group at random in 5, 7, 14 days after administration.
Pathology detection: After dissecting the mice, observed the trachea, bronchus, syncretio of lung, chest wall and membrana pleuralis, the volume of lung and size of lung focus, the lung surface was congested, hydroncus, consolidation and atelectasis by the naked eye. Took out the trachea, bronchus and the whole lung tissue to fixed with 10% of the formaldehyde solution, draw materials.

[3] = 0.25 mg/ml atomization inspired
[4] = 0.25 mg/ml atomization inspired, 14 days
[5] = 0.5 mg/ml atomization inspired, 14 days
[6] = 2 mg/ml atomization inspired, 14 days
[7] = 0.25 mg/ml atomization inspired, listed as gene recombinant human lysozyme
[8] = 0.25 mg/ml atomization inspired, listed as recombinant human lysozyme

## Human lysozyme: gene recombinant Human Lysozyme (HLZ), active unit 30000 u/mg, batch number 020110; given atomized / as aerosol
[1]; [3]
  average survival day (day, x ± s): 9.30 ± 4.08 days
  survival elevation rate (%): 23.3%
[1]; [4]
  accumulative survival number: 12
  survival rate (%): 40.0%
[1]; 0.25 mg/ml atomization inspired, day 1
  Death number(piece): 0 piece
[1]; 0.25 mg/ml atomization inspired, day 2
  Death number(piece): 0 piece
[1]; 0.25 mg/ml atomization inspired, day 3
  Death number(piece): 1 piece
[1]; 0.25 mg/ml atomization inspired, day 4
  Death number(piece): 2 piece
[1]; 0.25 mg/ml atomization inspired, day 5
  Death number(piece): 3 piece
[1]; 0.25 mg/ml atomization inspired, day 6
  Death number(piece): 3 piece
[1]; 0.25 mg/ml atomization inspired, day 7
  Death number(piece): 5 piece
[1]; 0.25 mg/ml atomization inspired, day 8
  Death number(piece): 4 piece
[1]; 0.25 mg/ml atomization inspired, day 9
  Death number(piece): 0 piece
[1]; 0.25 mg/ml atomization inspired, day 10
  Death number(piece): 0 piece
[1]; 0.25 mg/ml atomization inspired, day 11
  Death number(piece): 0 piece
[1]; 0.25 mg/ml atomization inspired, day 12
  Death number(piece): 0 piece
[1]; 0.25 mg/ml atomization inspired, day 13
  Death number(piece): 0 piece
[1]; 0.25 mg/ml atomization inspired, day 14
  Death number(piece): 0 piece
[1]; 0.5 mg/ml atomization inspired
  average survival day (day, x ± s): 10.3 ± 3.77***^Δ day
  survival elevation rate (%): 30.0%
[1]; [5]
  accumulative survival number: 14
  survival rate (%): 46.7%
[1]; 0.5 mg/ml atomization inspired, day 1
  Death number(piece): 0 piece
[1]; 0.5 mg/ml atomization inspired, day 2
  Death number(piece): 0 piece
[1]; 0.5 mg/ml atomization inspired, day 3
  Death number(piece): 0 piece
[1]; 0.5 mg/ml atomization inspired, day 4
  Death number(piece): 2 piece
[1]; 0.5 mg/ml atomization inspired, day 5
  Death number(piece): 2 piece
[1]; 0.5 mg/ml atomization inspired, day 6
  Death number(piece): 3 piece
[1]; 0.5 mg/ml atomization inspired, day 8
  Death number(piece): 5 piece
[1]; 0.5 mg/ml atomization inspired, day 9
  Death number(piece): 0 piece
[1]; 0.5 mg/ml atomization inspired, day 10
  Death number(piece): 0 piece
[1]; 0.5 mg/ml atomization inspired, day 11
  Death number(piece): 0 piece
[1]; 0.5 mg/ml atomization inspired, day 12
  Death number(piece): 0 piece
[1]; 0.5 mg/ml atomization inspired, day 13
  Death number(piece): 0 piece
[1]; 0.5 mg/ml atomization inspired, day 14
  Death number(piece): 0 piece
[1]; 1 mg/ml atomization inspired, 14 days
  survival rate: 56.7%
[1]; 2 mg/ml atomization inspired
  average survival day (day, x ± s): 12.93 ± 2.05***^ΔΔΔ day
  survival elevation rate (%): 60.0%
[1]; [6]
  accumulative survival number: 23
  survival rate (%): 76.7%
[1]; 2 mg/ml atomization inspired, day 1
  Death number(piece): 0 piece
[1]; 2 mg/ml atomization inspired, day 2
  Death number(piece): 0 piece
[1]; 2 mg/ml atomization inspired, day 3
  Death number(piece): 0 piece
[1]; 2 mg/ml atomization inspired, day 4
  Death number(piece): 0 piece
[1]; 2 mg/ml atomization inspired, day 5
  Death number(piece): 0 piece
[1]; 2 mg/ml atomization inspired, day 6
  Death number(piece): 0 piece
[1]; 2 mg/ml atomization inspired, day 7
  Death number(piece): 0 piece
[1]; 2 mg/ml atomization inspired, day 9
  Death number(piece): 2 piece
[1]; 2 mg/ml atomization inspired, day 10
  Death number(piece): 1 piece
[1]; 2 mg/ml atomization inspired, day 11
  Death number(piece): 2 piece
[1]; 2 mg/ml atomization inspired, day 12
  Death number(piece): 0 piece
[1]; 2 mg/ml atomization inspired, day 13
  Death number(piece): 0 piece
[1]; 2 mg/ml atomization inspired, day 14
  Death number(piece): 0 piece
[1]; 2, 1, 0.5 mg/ml, p<0.05
  improving of survival rate and days over infected control group: 30-60%
[1]; by the 14th day, basically negative
  lung bacterial number: < 10 CFU/ml
[1]; dose 0.5
  The 4th day (bacterial number, head incomplete): 5.0 ± 3.0
[1]; dose 0.5, the 5th day
  The 5th day (bacterial number, head incomplete): 80.80 ± 14.28
[1]; dose 1
  The 4th day (bacterial number, head incomplete): 5.5 ± 3.2
[1]; dose 1, the 5th day
  The 5th day (bacterial number, head incomplete): 78.30 ± 17.86
[1]; dose 2
  The 4th day (bacterial number, head incomplete): 3.5 ± 2.0
[1]; dose 2, the 5th day
  The 5th day (bacterial number, head incomplete): 76.70 ± 11.60
[1]; high dose 2 mg/ml, 3rd day
  result of pathology detection of the mice bronchus: bronchus moderate inflammation, mucous membrane
  result of pathology detection of the mice lung tissue: part of alveolar wall tissue thickening, few monocaryon
  result of pathology detection of the mice trachea: acute moderate inflammation
[1]; high dose 2 mg/ml, 7th day
  result of pathology detection of the mice bronchus: bronchus moderate inflammation, intact mucous
  result of pathology detection of the mice lung tissue: normal basically
  result of pathology detection of the mice trachea: Normal basically
[1]; high dose 2 mg/ml, 14th day
  result of pathology detection of the mice bronchus: Normal basically
[1]; low dose 0.5 mg/ml, 3rd day
  result of pathology detection of the mice bronchus: bronchus moderate inflammation
  result of pathology detection of the mice lung tissue: the disperse alveolar wall tissue gently thickening,
  result of pathology detection of the mice trachea: acute hyperphlogosis
[1]; low dose 0.5 mg/ml, 7th day
  result of pathology detection of the mice bronchus: bronchus moderate inflammation
  result of pathology detection of the mice lung tissue: the part or disperse alveolar wall tissue gently
  result of pathology detection of the mice trachea: acute hyperphlogosis
[1]; low dose 0.5 mg/ml, 14th day
  result of pathology detection of the mice bronchus: bronchus moderate inflammation, bleeding
  result of pathology detection of the mice trachea: acute mild inflammation
[1]; medium dose 1 mg/ml, 3rd day
  result of pathology detection of the mice bronchus: bronchus moderate inflammation, bleeding, hydroncus,
  result of pathology detection of the mice lung tissue: bronchiole alveolar wall tissue thickening, few
  result of pathology detection of the mice trachea: acute moderate inflammation
[1]; medium dose 1 mg/ml, 7th day
  result of pathology detection of the mice bronchus: bronchus moderate inflammation
  result of pathology detection of the mice trachea: acute moderate inflammation
[1]; medium dose 1 mg/ml, 14th day
  result of pathology detection of the mice bronchus: bronchus moderate inflammation
  result of pathology detection of the mice lung tissue: normal basically
  result of pathology detection of the mice trachea: Normal basically
[1]; mice killed on the 7th, 14th day after administration
  pharmacology histology detection of trachea, bronchus, lung tissue: turned to normal basically
[1]; atomization inspired 0.5 (15000 u/piece), the 1th day
  bacterial number: 350.60 ± 21.5 CFU/mL
[1]; atomization inspired 0.5 (15000 u/piece), the 3rd day
  bacterial number: 241.90 ± 16.62 CFU/mL
[1]; atomization inspired 0.5 (15000 u/piece), the 5th day
  bacterial number: 134.60 ± 13.58 CFU/mL
[1]; atomization inspired 0.5 (15000 u/piece), the 14th day
  bacterial number: 57.60 ± 15.37 CFU/mL
[1]; atomization inspired 1 (30000 u/piece), 0 day
  bacterial number: 350 ± 21.5 CFU/mL
[1]; atomization inspired 1 (30000 u/piece), the 1th day
  bacterial number: 254.20 ± 25.42 CFU/mL
[1]; atomization inspired 1 (30000 u/piece), the 3rd day
  bacterial number: 172.70 ± 17.62**^ΔΔ CFU/mL
[1]; atomization inspired 1 (30000 u/piece), the 14th day
  bacterial number: 3.5 ± 0.20 CFU/mL
[1]; atomization inspired 2 (60000 u/piece), the 1th day
  bacterial number: 253.80 ± 22.88 CFU/mL
[1]; atomization inspired 2 (60000 u/piece), the 3rd day
  bacterial number: 165.80 ± 16.08^ΔΔ CFU/mL
[1]; atomization inspired 2 (60000 u/piece), the 5th day
  bacterial number: 76.70 ± 11.60***^ΔΔ CFU/mL
[1]; atomization inspired 2 (60000 u/piece), the 14th day
  bacterial number: 2.50 ± 1.46 CFU/mL
[2]; [7]
  survival rate (%): 40%
  average survival day (day, x ± s): 9.30 ± 4.08 days
[2]; [8]
  survival rate (%): 40%
  average survival day (day, x ± s): 9.30 ± 4.08 days
[2]; 0.5 mg/ml atomization inspired, day 7
  Death number(piece): 4 piece
[2]; 0.5 mg/ml atomization inspired, listed as gene recombinant human lysozyme
  average survival day (day, x ± s): 10.3 ± 3.77 days
[2]; 0.5 mg/ml atomization inspired, listed as recombinant human lysozyme
  average survival day (day, x ± s): 3.77 ± 10.3 days
[2]; 1 mg/ml atomization inspired, 30 mice
  survival number: 17
[2]; 1 mg/ml atomization inspired, listed as gene recombinant human lysozyme
  average survive days: 11.2 ± 3.36 days
[2]; 1 mg/ml atomization inspired, listed as recombinant human lysozyme
  average survive days: 11.23 ± 3.36 days
[2]; 2 mg/ml atomization inspired, day 8
  Death number(piece): 2 piece
[2]; 2 mg/ml atomization inspired, listed as gene recombinant human lysozyme
  average survival day (day, x ± s): 12.93 ± 2.05 days
[2]; 2 mg/ml atomization inspired, listed as recombinant human lysozyme
  average survival day (day, x ± s): 12.93 ± 2.05 days
[2]; high dose 2 mg/ml, 14th day
  result of pathology detection of the mice lung tissue: normal basically
  result of pathology detection of the mice trachea: Normal basically
[2]; low dose 0.5 mg/ml, 14th day
  result of pathology detection of the mice lung tissue: bronchiole alveolar wall tissue gently thickening, few
[2]; medium dose 1 mg/ml, 7th day
  result of pathology detection of the mice lung tissue: few monocaryon infiltrating
[2]; atomization inspired 0.5 (15000 u/piece), 0 day
  bacterial number: 350 ± 21.5 CFU/mL
[2]; atomization inspired 1 (30000 u/piece), the 5th day
  bacterial number: 78.30 ± 17.86**^ΔΔ CFU/mL
[2]; atomization inspired 2 (60000 u/piece), 0 day
  bacterial number: 350 ± 21.5 CFU/mL
[2]; mice survival over 14 days, Bliss method
  95% feasible limits of ED50: 200 to 900 µg/mL
[2]; mice survival over 14 days, Bliss method, atomization inspired
  ED50 (median effective dose): 530 µg/mL
